# Like-named read-outs stand apart in the source and are kept apart here.
# Experiment: Tissue uptake study: plasma and tissue concentrations of abiraterone and abiraterone decanoate after single IV or IM injection
# Type: in vivo, rats, strain CD [Crl:CD(SD)]
# Conditions: CD [Crl:CD(SD)], rat, intramuscular, 90 mg/kg
# Experimental: The objective of this study is to collect tissue samples for the determination of the uptake of abiraterone decanoate and abiraterone following intravenous (IV) and intramuscular (IM; abiraterone decanoate only) injection. Additionally, blood steroid levels also were evaluated.
# Vehicle for IM injection: Corn oil with 10% benzyl alcohol (w/v) and 20% benzyl benzoate (w/v). The study followed the protocols described below.
# For intramuscular injections, the test article and vehicle will be administered once as a single intramuscular dose on Day 1 to animals in Groups 1 and 3. Doses will be administered via bolus intramuscular injection into the biceps femoris on the hind legs. The Test article will be warmed at 35° C. (±5°) for at least 1 hour prior to dosing. Individual doses will be based on the most recent body weights.
# For IV injections, the test article will be administered once on Day 1 as a single intravenous bolus injection to animals in Groups 2 and 4. The test article will be administered via the tail vein as a bolus intravenous injection (less than 2 minutes). Individual doses will be based on the most recent body weights.
# For serum steroid analysis, blood samples were collected from animals in each study group at predose and at terminal necropsy according to the following protocol. Animals were designated for 72 hr and 168 hr necropsy, the animals will be fasted overnight before scheduled blood collections. Plasma samples will be used for ACTH level analysis. Serum samples will be used for LH level analysis and steroid level analysis. Plasma samples will also be collected at various time points and be analyzed for abiraterone decanoate and abiraterone. Representative samples of tissues will be collected and snap frozen and analyzed. Lung, Liver, Adrenal glands, Prostate, Testes (Sample 1 and 2) and lymph nodes tissues will be collected. Lymph node(s) draining administration site(s): Inguinal (Groups 1-4) and Iliac (Groups 1 and 3 only). Lymph node, mandibular and Lymph node mesenteric tissues will also be collected.
compound,measurement,setting,value
"CCCCCCCCCC(=O)O[C@H]1CC[C@@]2(C)C(=CC[C@@H]3[C@@H]2CC[C@]2(C)C(c4cccnc4)=CC[C@@H]32)C1 [Abiraterone Decanoate, abiraterone decanoate]",concentration at 7 days,"iliac lymph node, read-out: Decanoate concentration, iliac lymph",91000 ng/g
same,concentration at 7 days,"inguinal lymph node, read-out: Decanoate concentration, Inguinal Lymph",254 ng/g
same,concentration at 7 days,"liver, read-out: Decanoate concentration, Liver",10.4 ng/g
same,concentration at 7 days,"lung, read-out: Decanoate concentration, Lung",735 ng/g
same,concentration at 7 days,"male, adrenal, read-out: Decanoate concentration, Adrenal",12.1 ng/g
same,concentration at 7 days,"male, plasma, read-out: Decanoate concentration, Plasma",3.1 ng/mL
same,concentration at 7 days,"male, prostate, read-out: Decanoate concentration, Prostate",0 ng/g
same,concentration at 7 days,"male, testes, read-out: Decanoate concentration, Testes",1.3 ng/g

# Source: patent US11957696B2 (Propella Therapeutics, Inc., priority 2021, dated 2024)
